The values below come from US11084790B2, “Insoluble complex or solvate thereof, pharmaceutical composition and use thereof” (Fruithy Holdings Limited, priority 2017, dated 2021).

The nature of the data set: Test on the solubility in a simulated body fluid. It counts as physicochemical. As to conditions: for Compound concentration: Bupivacaine / Compound concentration: DTTA / Compound concentration: Ropivacaine / Compound concentration: naphthol phosphate / solubility / Compound concentration: Pamoic acid: 0.01 M PBS pH 7.4, 37° C.; for stability of the suspension (ratio between acid radical and basic group) / solubility: simulated body fluid. As for the experimental part:
Test on the Solubility in a Simulated Body Fluid
The concentration of the drug dissolved in the PBS buffered solution was determined with an HPLC-a method.

Turning to `CCCCN1CCCCC1C(=O)Nc1c(C)cccc1C.CCCCN1CCCCC1C(=O)Nc1c(C)cccc1C.Cc1ccc(C(=O)OC(C(=O)O)C(OC(=O)c2ccc(C)cc2)C(=O)O)cc1` (stereo not shown) [Preparation Example 4, bis(bupivacaine) di-p-toluoyl tartarate], the “Compound concentration: Bupivacaine” value is on record as 11.3894 mM (5 min); 12.0091 mM (15 min); 11.4269 mM (30 min); 11.2567 mM (1 h); 11.2781 mM (2 h); 11.8518 mM (6 h). In addition, the “Compound concentration: Bupivacaine” value (24 h) is given as 11.6933 mM. The “Compound concentration: DTTA” value is listed as 5.1610 mM (5 min); 5.3995 mM (15 min); 5.1350 mM (30 min); 5.0848 mM (1 h); 5.0683 mM (2 h); 5.3120 mM (6 h). Besides, the “Compound concentration: DTTA” value (24 h) is 5.2197 mM.
For `CCCN1CCCC[C@H]1C(=O)Nc1c(C)cccc1C.Cc1ccc(C(=O)OC(C(=O)O)C(OC(=O)c2ccc(C)cc2)C(=O)O)cc1` (stereo not shown) [Preparation Example 5, mono(ropivacaine) di-p-toluoyl tartarate], the “Compound concentration: DTTA” value (5 min) is on record as 6.6768 mM; the “Compound concentration: DTTA” value (15 min) was 6.6128 mM; the “Compound concentration: DTTA” value (30 min) is 6.7040 mM; the “Compound concentration: DTTA” value (1 h) is recorded as 6.7521 mM; the “Compound concentration: DTTA” value (2 h) was 6.9880 mM; the “Compound concentration: DTTA” value (6 h) is given as 6.9718 mM. Also, the “Compound concentration: DTTA” value (24 h) is recorded as 7.0738 mM. The “Compound concentration: Ropivacaine” value is recorded as 7.2687 mM (5 min); 7.2155 mM (15 min); 7.2872 mM (30 min); 7.3437 mM (1 h); 7.6304 mM (2 h); 7.6041 mM (6 h). For the same molecule, for the setting “24 h”, the “Compound concentration: Ropivacaine” value was 7.6489 mM.
On to `CCCN1CCCC[C@H]1C(=O)Nc1c(C)cccc1C.CCCN1CCCC[C@H]1C(=O)Nc1c(C)cccc1C.Cc1ccc(C(=O)OC(C(=O)O)C(OC(=O)c2ccc(C)cc2)C(=O)O)cc1` (stereo not shown) [Preparation Example 6, bis(ropivacaine) di-p-toluoyl tartarate], for which the “Compound concentration: DTTA” value by setting is: (5 min) 13.3808 mM; (15 min) 15.0173 mM; (30 min) 18.5864 mM; (1 h) 19.9901 mM; (2 h) 19.6790 mM; (6 h) 19.6172 mM. The “Compound concentration: DTTA” value (24 h) is listed as 22.8439 mM. For the same molecule, the “Compound concentration: Ropivacaine” value is, setting by setting: (5 min) 26.0585 mM; (15 min) 29.8888 mM; (30 min) 38.6576 mM; (1 h) 41.9836 mM; (2 h) 41.0111 mM; (6 h) 40.7778 mM. Also, the “Compound concentration: Ropivacaine” value (24 h) is reported as 47.4453 mM.
Take `CCCCN1CCCCC1C(=O)Nc1c(C)cccc1C.O=P1(O)Oc2ccc3ccccc3c2-c2c(ccc3ccccc23)O1` [Preparation Example 7, bupivacaine binaphthol phosphate]: the “stability of the suspension (ratio between acid radical and basic group)” value is given as “stable”; the “solubility” value is “about 0.3 mM”. For the setting “5 min”, the “Compound concentration: Bupivacaine” value is reported as 0.2630 mM and the “Compound concentration: naphthol phosphate” value is given as 0.2935 mM. For the same molecule, for the setting “15 min”, the “Compound concentration: Bupivacaine” value is reported as 0.2714 mM and the “Compound concentration: naphthol phosphate” value is 0.2756 mM. For the same molecule, under “30 min”, the “Compound concentration: Bupivacaine” value was 0.3105 mM and the “Compound concentration: naphthol phosphate” value is reported as 0.2643 mM. For the setting “1 h”, the “Compound concentration: Bupivacaine” value was 0.2807 mM and the “Compound concentration: naphthol phosphate” value is listed as 0.2633 mM. Also, under “2 h”, the “Compound concentration: Bupivacaine” value is 0.3148 mM and the “Compound concentration: naphthol phosphate” value is listed as 0.2789 mM. For the same molecule, under “6 h”, the “Compound concentration: Bupivacaine” value is on record as 0.3177 mM and the “Compound concentration: naphthol phosphate” value is on record as 0.2884 mM. Also, under “24 h”, the “Compound concentration: Bupivacaine” value is on record as 0.2684 mM and the “Compound concentration: naphthol phosphate” value is 0.2646 mM.
Turning to `CC1(C)C2CCC1(CS(=O)(=O)O)C(=O)C2.CCCCN1CCCCC1C(=O)Nc1c(C)cccc1C` (stereo not shown) [Preparation Example 8, bupivacaine camphorsulfonate], the “Compound concentration: Bupivacaine” value runs as follows: (5 min) 47.6783 mM; (15 min) 57.1254 mM; (30 min) 68.3149 mM; (1 h) 68.1958 mM; (2 h) 68.9026 mM; (6 h) 71.2539 mM. Further, the “Compound concentration: Bupivacaine” value (24 h) is 66.0200 mM.
As for `CCCN1CCCC[C@H]1C(=O)Nc1c(C)cccc1C.O=C(O)c1cc2ccccc2c(Cc2c(O)c(C(=O)O)cc3ccccc23)c1O` [Preparation Example 9, mono(ropivacaine) pamoate], the “stability of the suspension (ratio between acid radical and basic group)” value is on record as “stable”; the “solubility” value is recorded as “about 2.0 mM”. Moreover, where the note is “5 min”, the “Compound concentration: Pamoic acid” value is 0.3459 mM and the “Compound concentration: Ropivacaine” value is 0.3479 mM. Where the note is “15 min”, the “Compound concentration: Pamoic acid” value is 0.6015 mM and the “Compound concentration: Ropivacaine” value is reported as 0.6026 mM. Further, for the setting “30 min”, the “Compound concentration: Pamoic acid” value is reported as 0.8803 mM and the “Compound concentration: Ropivacaine” value is reported as 0.8870 mM. Moreover, for the setting “1 h”, the “Compound concentration: Pamoic acid” value is given as 1.2808 mM and the “Compound concentration: Ropivacaine” value is recorded as 1.2856 mM. Also, for the setting “2 h”, the “Compound concentration: Pamoic acid” value was 1.6684 mM and the “Compound concentration: Ropivacaine” value is given as 1.6608 mM. Besides, under “6 h”, the “Compound concentration: Pamoic acid” value is recorded as 1.9539 mM and the “Compound concentration: Ropivacaine” value is 1.9440 mM. Further, for the setting “24 h”, the “Compound concentration: Pamoic acid” value is given as 2.0523 mM and the “Compound concentration: Ropivacaine” value was 1.9720 mM.
On to `CCCCN1CCCCC1C(=O)Nc1c(C)cccc1C.CCCCN1CCCCC1C(=O)Nc1c(C)cccc1C.O=C(O)c1cc2ccccc2c(Cc2c(O)c(C(=O)O)cc3ccccc23)c1O` [Preparation Example 12, bis(bupivacaine) pamoate], for which the “stability of the suspension (ratio between acid radical and basic group)” value is “stable”; the “solubility” value is “about 0.3 mM”. Where the note is “5 min”, the “Compound concentration: Bupivacaine” value is on record as 0.1475 mM and the “Compound concentration: Pamoic acid” value is given as 0.0736 mM. Further, where the note is “15 min”, the “Compound concentration: Bupivacaine” value was 0.2101 mM and the “Compound concentration: Pamoic acid” value is 0.1070 mM. Moreover, for the setting “30 min”, the “Compound concentration: Bupivacaine” value is reported as 0.2474 mM and the “Compound concentration: Pamoic acid” value was 0.1274 mM. Under “1 h”, the “Compound concentration: Bupivacaine” value was 0.2672 mM and the “Compound concentration: Pamoic acid” value is on record as 0.1375 mM. For the setting “2 h”, the “Compound concentration: Bupivacaine” value is on record as 0.2802 mM and the “Compound concentration: Pamoic acid” value is 0.1400 mM. Moreover, for the setting “6 h”, the “Compound concentration: Bupivacaine” value was 0.2908 mM and the “Compound concentration: Pamoic acid” value was 0.1497 mM. Moreover, under “24 h”, the “Compound concentration: Bupivacaine” value is on record as 0.2848 mM and the “Compound concentration: Pamoic acid” value is listed as 0.1429 mM.
